Laboratory results published in ChEMBL document CHEMBL5465560, “Selectivity Literature for EUbOPEN Chemogenomic Library” (2024).

Columns and labels:
[1] = biological target: Epidermal growth factor receptor (Homo sapiens, UniProt P00533); experiment: Selectivity interaction (Kinase screening (Nanosyn)) EUB0000604a EGFR
[2] = biological target: N-lysine methyltransferase SMYD2 (Homo sapiens) (UniProt Q9NRG4); details: at 1 µM
[3] = biological target: Serine/threonine-protein kinase 10 (Homo sapiens) (UniProt O94804); experiment: Selectivity interaction (Kinase panel (DSF assay)) EUB0001489b STK10
[4] = biological target: Mitogen-activated protein kinase kinase kinase 14 (Homo sapiens) (UniProt Q99558); experiment: Selectivity interaction (LanthaScreen Eu Kinase Binding Assay) EUB0001632a MAP3K14; details: at 10 µM
[5] = biological target: Cysteinyl leukotriene receptor 1 (Homo sapiens) (UniProt Q9Y271); experiment: Selectivity interaction (Eurofins CEREP Diversity Profile (receptors and ion channels)) EUB0000279b CYSLTR1; details: at 10 µM
[6] = biological target: Histone-lysine N-methyltransferase KMT5C (Homo sapiens) (UniProt Q86Y97); experiment: Selectivity interaction (Methyltransferase screen (radiometric assays, panel of 8 PRMTs, 21 protein lysine methyltransferases, 3 DNA methyltransferases, and one RNA methyltransferase)) EUB0000271b SUV420H2
[7] = biological target: 5-hydroxytryptamine receptor 2A (Homo sapiens, UniProt P28223); experiment: Selectivity interaction (Panel of non-epigenetic targets (kinases, GPCRs, ion channels, and transporters, Eurofins) ) EUB0000271b HTR2A; details: at 1 µM
[8] = biological target: Mitogen-activated protein kinase kinase kinase 14 (Homo sapiens) (UniProt Q99558); experiment: Selectivity interaction (KinomeScan (DiscoverX)) EUB0000229b MAP3K14; details: at 10 µM
[9] = biological target: Serine/threonine-protein kinase MRCK beta (Homo sapiens) (UniProt Q9Y5S2); experiment: Selectivity interaction (KinomeScan (DiscoverX)) EUB0001079a CDC42BPB; details: at 1 µM
[10] = biological target: Serine/threonine-protein kinase Nek4 (Homo sapiens) (UniProt P51957); experiment: Selectivity interaction (Kinase panel (Eurofins)) EUB0001564a NEK4; details: at 1 µM
[11] = biological target: Serine/threonine-protein kinase RIO2 (Homo sapiens) (UniProt Q9BVS4); experiment: Selectivity interaction (KinomeScan (DiscoverX)) EUB0000045b RIOK2
[12] = biological target: T1, Tyrosine-protein kinase Mer (Homo sapiens) (UniProt Q12866); experiment: Selectivity interaction (KinomeScan (DiscoverX)) EUB0000045b MERTK
T1 sequence (whole entry): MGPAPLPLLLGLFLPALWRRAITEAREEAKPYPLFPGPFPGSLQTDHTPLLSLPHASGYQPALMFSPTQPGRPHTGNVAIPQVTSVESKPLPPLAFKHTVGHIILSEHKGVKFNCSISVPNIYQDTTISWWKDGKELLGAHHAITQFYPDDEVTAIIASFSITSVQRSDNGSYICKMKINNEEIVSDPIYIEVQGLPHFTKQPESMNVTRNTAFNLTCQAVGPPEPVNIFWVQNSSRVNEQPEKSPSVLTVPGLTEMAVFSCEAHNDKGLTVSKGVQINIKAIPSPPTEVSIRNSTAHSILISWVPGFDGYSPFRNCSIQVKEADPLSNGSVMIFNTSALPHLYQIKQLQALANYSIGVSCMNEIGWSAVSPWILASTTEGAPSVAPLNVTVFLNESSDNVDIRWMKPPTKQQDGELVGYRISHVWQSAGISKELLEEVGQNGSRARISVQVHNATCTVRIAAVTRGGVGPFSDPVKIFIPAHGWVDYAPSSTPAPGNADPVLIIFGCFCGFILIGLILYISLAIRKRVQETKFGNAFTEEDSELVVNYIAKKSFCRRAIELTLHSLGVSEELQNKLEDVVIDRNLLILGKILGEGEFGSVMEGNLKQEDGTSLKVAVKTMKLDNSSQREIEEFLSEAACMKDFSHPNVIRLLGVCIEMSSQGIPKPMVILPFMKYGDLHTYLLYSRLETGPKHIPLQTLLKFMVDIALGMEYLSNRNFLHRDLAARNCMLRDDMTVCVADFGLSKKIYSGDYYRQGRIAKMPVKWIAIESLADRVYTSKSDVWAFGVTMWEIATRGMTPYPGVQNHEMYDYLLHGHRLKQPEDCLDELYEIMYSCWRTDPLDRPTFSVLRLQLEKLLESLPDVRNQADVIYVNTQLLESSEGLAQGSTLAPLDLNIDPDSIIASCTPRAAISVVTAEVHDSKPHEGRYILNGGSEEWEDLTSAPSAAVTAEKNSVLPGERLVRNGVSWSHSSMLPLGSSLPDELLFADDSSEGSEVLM

[13] = biological target: Tyrosine-protein kinase Yes (Homo sapiens) (UniProt P07947); experiment: Selectivity interaction (KinomeScan (DiscoverX)) EUB0000607a YES1; details: at 10 µM
[14] = biological target: T2, Mitogen-activated protein kinase kinase kinase kinase 2 (Homo sapiens) (UniProt Q12851); experiment: Selectivity interaction (Kinase panel (KiNativ target engagement assay in Jurkat cells)) EUB0001635a MAP4K2; format: cell-based; details: Selectivity number of off-targets 0.0, Selectivity number of targets 233.0, Source Knowledge https://www.sciencedirect.com/science/article/pii/S2451945619300674?via%3Dihub, at 1 µM
T2 sequence (whole entry): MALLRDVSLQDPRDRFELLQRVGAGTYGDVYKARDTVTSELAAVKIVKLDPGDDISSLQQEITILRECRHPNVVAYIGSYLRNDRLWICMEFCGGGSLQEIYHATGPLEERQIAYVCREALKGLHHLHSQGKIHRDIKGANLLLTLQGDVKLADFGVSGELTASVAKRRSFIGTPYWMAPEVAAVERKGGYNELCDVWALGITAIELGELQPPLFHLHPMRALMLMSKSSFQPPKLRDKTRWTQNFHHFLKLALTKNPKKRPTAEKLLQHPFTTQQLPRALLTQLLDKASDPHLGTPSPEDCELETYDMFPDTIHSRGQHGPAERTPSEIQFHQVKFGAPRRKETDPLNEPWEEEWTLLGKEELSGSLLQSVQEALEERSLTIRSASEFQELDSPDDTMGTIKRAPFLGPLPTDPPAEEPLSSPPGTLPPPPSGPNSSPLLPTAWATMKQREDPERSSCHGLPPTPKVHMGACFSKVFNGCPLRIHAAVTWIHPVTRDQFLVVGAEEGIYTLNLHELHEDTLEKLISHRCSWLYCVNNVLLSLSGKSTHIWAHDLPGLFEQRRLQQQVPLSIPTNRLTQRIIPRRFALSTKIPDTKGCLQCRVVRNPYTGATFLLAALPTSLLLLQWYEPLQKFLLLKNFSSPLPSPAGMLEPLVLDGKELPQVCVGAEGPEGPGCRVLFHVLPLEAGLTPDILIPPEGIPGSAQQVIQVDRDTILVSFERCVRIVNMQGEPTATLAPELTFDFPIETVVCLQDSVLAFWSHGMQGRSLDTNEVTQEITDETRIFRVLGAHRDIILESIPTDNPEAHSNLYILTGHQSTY

Sequence of Serine/threonine-protein kinase RIO2 (Homo sapiens) (Q9BVS4 whole entry, looked up): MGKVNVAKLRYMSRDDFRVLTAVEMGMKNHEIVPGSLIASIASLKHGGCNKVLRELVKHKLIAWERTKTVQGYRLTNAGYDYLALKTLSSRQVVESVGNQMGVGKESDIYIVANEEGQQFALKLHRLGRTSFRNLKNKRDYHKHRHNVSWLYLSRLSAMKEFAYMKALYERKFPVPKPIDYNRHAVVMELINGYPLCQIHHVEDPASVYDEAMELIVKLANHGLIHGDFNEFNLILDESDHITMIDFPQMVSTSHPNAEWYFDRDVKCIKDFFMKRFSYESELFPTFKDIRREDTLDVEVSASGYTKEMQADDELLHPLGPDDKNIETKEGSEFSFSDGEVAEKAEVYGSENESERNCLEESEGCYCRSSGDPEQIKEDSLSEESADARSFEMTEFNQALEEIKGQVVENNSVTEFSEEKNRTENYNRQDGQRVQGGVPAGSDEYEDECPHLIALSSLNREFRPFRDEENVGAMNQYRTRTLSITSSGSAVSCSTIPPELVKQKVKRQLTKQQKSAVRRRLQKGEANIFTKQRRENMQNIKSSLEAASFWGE
Sequence of Mitogen-activated protein kinase kinase kinase 14 (Homo sapiens) (Q99558 whole entry, looked up): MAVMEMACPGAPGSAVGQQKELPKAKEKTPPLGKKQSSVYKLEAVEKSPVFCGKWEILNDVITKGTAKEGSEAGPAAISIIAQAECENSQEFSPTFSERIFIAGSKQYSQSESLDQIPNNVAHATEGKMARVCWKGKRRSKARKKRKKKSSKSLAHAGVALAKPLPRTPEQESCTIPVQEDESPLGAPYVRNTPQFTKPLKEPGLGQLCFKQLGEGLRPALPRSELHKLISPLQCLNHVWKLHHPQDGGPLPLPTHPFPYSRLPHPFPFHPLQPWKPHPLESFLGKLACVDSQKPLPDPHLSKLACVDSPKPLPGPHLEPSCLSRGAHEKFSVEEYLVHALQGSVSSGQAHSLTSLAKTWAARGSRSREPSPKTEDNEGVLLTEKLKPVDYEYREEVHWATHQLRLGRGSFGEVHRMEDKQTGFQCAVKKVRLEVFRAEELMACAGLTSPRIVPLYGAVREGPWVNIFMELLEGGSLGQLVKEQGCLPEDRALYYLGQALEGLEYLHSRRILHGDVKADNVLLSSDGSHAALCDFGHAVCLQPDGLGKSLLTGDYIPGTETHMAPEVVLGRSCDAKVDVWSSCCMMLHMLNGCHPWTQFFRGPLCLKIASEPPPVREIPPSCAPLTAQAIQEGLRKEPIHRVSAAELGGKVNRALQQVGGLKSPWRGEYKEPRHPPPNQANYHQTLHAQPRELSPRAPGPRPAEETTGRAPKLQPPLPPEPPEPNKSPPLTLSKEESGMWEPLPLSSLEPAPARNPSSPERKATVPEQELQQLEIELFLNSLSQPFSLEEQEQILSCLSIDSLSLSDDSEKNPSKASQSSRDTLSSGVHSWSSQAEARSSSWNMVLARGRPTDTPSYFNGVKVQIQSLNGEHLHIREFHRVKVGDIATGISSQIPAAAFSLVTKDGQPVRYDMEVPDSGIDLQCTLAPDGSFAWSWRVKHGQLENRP
Sequence of Histone-lysine N-methyltransferase KMT5C (Homo sapiens) (Q86Y97 whole entry, looked up): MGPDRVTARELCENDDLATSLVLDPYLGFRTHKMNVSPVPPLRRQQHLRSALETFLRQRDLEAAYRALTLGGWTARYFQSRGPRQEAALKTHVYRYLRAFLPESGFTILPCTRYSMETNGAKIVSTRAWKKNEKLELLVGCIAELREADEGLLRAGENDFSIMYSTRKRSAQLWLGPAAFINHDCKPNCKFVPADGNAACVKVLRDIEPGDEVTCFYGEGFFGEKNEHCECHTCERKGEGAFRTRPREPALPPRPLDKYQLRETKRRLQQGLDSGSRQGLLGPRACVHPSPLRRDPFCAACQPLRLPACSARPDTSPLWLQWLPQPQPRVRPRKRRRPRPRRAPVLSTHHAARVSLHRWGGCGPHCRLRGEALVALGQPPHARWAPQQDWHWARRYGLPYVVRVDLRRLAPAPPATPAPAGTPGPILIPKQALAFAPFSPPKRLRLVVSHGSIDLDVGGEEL
Sequence of Epidermal growth factor receptor (P00533 whole entry): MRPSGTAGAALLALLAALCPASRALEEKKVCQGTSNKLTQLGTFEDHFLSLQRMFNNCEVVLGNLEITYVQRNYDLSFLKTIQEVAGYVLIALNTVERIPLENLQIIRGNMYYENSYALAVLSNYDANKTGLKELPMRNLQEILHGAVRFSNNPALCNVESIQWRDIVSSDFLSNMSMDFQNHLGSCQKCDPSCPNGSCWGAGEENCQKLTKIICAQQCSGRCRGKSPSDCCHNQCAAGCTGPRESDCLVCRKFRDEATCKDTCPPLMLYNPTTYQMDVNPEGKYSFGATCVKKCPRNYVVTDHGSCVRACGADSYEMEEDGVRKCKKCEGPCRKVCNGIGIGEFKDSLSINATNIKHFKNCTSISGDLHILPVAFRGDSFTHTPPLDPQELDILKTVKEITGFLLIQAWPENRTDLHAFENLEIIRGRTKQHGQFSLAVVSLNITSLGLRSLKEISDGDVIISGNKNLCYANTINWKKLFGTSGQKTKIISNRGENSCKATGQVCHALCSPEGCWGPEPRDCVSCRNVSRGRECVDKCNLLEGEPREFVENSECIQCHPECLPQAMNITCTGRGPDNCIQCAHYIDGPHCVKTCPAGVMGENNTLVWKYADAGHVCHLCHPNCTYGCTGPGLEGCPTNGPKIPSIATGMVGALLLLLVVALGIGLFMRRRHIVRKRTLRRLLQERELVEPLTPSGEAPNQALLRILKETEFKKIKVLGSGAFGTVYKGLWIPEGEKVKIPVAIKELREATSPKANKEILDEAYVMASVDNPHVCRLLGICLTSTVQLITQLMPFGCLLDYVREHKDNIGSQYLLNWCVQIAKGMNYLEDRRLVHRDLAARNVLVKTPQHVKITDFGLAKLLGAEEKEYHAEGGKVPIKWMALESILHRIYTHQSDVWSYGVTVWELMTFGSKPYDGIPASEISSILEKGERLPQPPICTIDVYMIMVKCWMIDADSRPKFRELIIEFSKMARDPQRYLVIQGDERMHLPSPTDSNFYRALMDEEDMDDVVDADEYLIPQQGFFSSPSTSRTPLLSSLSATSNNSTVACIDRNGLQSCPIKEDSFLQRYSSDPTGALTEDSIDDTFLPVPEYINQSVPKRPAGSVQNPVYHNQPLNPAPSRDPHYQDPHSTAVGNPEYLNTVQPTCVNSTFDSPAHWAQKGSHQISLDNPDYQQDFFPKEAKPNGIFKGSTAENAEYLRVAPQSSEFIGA
Sequence of N-lysine methyltransferase SMYD2 (Homo sapiens) (Q9NRG4 whole entry): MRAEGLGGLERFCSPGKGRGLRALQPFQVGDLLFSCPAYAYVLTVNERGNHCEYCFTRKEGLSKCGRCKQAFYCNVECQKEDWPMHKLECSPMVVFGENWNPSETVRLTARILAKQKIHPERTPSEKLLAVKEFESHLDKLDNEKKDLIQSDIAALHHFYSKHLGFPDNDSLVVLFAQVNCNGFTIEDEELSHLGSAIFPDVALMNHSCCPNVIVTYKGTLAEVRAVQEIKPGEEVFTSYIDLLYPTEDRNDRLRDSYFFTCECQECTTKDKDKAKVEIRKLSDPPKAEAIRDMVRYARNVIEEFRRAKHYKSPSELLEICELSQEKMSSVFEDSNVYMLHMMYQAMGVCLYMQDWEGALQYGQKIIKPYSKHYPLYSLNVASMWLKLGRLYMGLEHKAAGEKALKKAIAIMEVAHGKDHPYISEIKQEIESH
Sequence of Cysteinyl leukotriene receptor 1 (Homo sapiens) (Q9Y271 whole entry): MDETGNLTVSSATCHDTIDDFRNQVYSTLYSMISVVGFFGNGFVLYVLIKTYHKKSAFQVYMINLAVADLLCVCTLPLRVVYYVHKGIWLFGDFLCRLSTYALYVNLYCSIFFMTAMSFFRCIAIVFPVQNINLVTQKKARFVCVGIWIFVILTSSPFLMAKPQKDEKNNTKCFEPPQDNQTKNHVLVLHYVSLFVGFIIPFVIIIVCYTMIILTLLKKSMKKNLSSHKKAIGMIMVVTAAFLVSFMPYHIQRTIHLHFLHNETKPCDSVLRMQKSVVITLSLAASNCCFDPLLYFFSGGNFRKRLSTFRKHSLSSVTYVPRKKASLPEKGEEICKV
Sequence of Tyrosine-protein kinase Yes (Homo sapiens) (P07947 2-543 limits assumed): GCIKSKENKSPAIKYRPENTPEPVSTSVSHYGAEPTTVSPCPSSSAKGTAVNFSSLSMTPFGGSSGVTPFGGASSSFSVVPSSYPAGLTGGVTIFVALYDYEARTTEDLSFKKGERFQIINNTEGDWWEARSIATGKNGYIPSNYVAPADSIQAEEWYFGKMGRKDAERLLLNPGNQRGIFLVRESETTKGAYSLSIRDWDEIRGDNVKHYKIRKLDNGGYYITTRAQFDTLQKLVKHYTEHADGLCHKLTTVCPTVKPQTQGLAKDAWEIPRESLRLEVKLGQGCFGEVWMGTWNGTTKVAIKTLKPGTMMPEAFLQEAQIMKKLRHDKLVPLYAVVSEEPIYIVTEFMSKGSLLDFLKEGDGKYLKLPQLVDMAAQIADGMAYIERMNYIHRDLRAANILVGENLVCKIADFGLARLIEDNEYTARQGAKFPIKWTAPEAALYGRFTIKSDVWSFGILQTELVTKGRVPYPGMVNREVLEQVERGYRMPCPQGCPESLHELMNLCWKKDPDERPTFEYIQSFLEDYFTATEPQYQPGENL
Sequence of 5-hydroxytryptamine receptor 2A (P28223 whole entry): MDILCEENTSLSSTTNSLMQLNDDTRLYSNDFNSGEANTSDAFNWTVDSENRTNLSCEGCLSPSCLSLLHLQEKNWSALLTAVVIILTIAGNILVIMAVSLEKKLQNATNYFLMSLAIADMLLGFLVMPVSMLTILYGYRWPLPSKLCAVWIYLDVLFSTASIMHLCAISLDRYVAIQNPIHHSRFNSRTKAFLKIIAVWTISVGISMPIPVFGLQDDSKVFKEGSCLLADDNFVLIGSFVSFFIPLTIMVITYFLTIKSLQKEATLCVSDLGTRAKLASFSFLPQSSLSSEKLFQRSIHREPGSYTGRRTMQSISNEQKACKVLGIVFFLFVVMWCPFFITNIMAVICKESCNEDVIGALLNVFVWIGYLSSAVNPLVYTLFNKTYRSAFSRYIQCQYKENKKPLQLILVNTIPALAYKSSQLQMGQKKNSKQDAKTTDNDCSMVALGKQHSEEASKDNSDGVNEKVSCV

Compound `Cc1cnc(Nc2ccc(F)cc2Cl)nc1-c1c[nH]c(C(=O)N[C@H](CO)c2cccc(Cl)c2)c1` has a % of inhibition [1] of 6%.
With `CNCCN1CCC(c2cc(CN(C)C(=O)c3cccc(Oc4ccccc4)c3)ccn2)CC1` the % activity [2] was > 90%.
Compound `CN1CCN(C(=O)c2ccc3cc2OCCOCCNc2ccn4ncc-3c4n2)CC1` has a dTM [3] of 2.3 K.
With `Cn1cc(-n2cnc3c(NCc4nc5cc(Cl)c(Cl)cc5[nH]4)nc(N4CCOCC4)nc32)cn1` the % of inhibition [4] was -10.4%.
`CC(=O)c1cc(-c2ccccc2OCC2CC2)c2ncccn12` showed a % of control [5] of 103%.
Work on `Cc1cc(C)cc([C@@H]2c3cc(C)ccc3NC(=O)CN2C(=O)c2ccc(Br)s2)c1` yielded a % of activity ([6]; at 1 µM) of 102%, a % of activity ([6]; at 10 µM) of 102% and a % of inhibition [7] of 12%.
Compound `COc1cc(N(C)c2ccnc3ccc(C(F)(F)F)cc23)cc(OC)c1OC` has a % binding [8] of 100%.
Compound `Nc1cnc(N2CCc3cc(S(=O)(=O)Nc4c(F)cc(Cl)cc4F)cc(N4CCCC4=O)c32)nc1` [TP-020n] has a % of control [9] of 95%.
In the case of `CC[C@@H](Nc1c(C#N)c(-c2ccc(-c3cccc(C)c3F)cc2)nc2cnccc12)C(=O)O` [BAY-091], the % of inhibition [10] is reported as 32.1%.
`C=CC(=O)Nc1cc(-n2c(=O)ccc3cnc4ccc(-c5ccc(NS(C)(=O)=O)cc5)cc4c32)ccc1C` showed a % of control ([11]; at 1 µM) of 66%, a % of control ([11]; at 10 µM) of 43% and a % of control ([12]; at 1 µM) of 72%. It also gave a % of control ([12]; at 10 µM) of 100%.
Compound `CNC(=O)Nc1ccc(-c2nc(N3CC4CCC(C3)O4)c3cnn(C4CCC5(CC4)OCCO5)c3n2)cc1` has a % of control [13] of 97%.
`C=CC(=O)Nc1ccc(C(=O)Nc2[nH]nc3c2CN(C(=O)N[C@H](CN(C)C)c2ccccc2)C3(C)C)cc1` was tested, and the % of engagement [14] was -6.1%.
